Values quoted from earlier work, collected in patent US20210353673A1, “CD11B + PIEZO-1 + MACROPHAGES AND USES THEREOF” (ALBERT-LUDWIGS-UNIVERSITÄT FREIBURG, priority 2018, published 2021).

System: endothelial cells
Settings: after 1 week, normal angiogenesis induced by VEGF

**Q.** For “vascular endothelial growth factor [VEGF]”, which “ECs in Go phase” value is on record?
**A.** 93%
